Data published in patent US20090068290A1, “BIFEPRUNOX DOSES FOR TREATING SCHIZOPHRENIA” (priority 2006, published 2009).
Entries after “also recorded” stand apart in the source; their conditions may differ.

Columns and labels:
[1] = Laboratory assessments (prolactin, lipids), Clinical Study One; type: in vivo, human
Source text: METHOD: A 6-Week randomized, placebo-controlled, risperidone-referenced dose-finding study included 589 randomized patients with an acute exacerbation of schizophrenia (DSM-IV-TR). […] The change in the Positive and Negative Symptom Scale (PANSS) total score, from baseline to endpoint, was the primary outcome measure. Secondary efficacy measures included: PANSS positive, PANSS negative, PANSS general psychopathology (GPP) score, PANSS-derived Brief Psychiatric Rating Scale (BPRS) score, Clinical Global Impressions-Severity of Illness (CGI-S), CGI-Improvement (CGI-I) scores, and responder rates. Safety and tolerability evaluations included extrapyramidal symptoms (EPS), weight gain, lipid profile, and serum prolactin. Risperidone was included for assay sensitivity.

[2] = system: adult subjects with schizophrenia; experiment: CGI Improvement score, Clinical Study One; type: in vivo, human; design: Actual Value of CGI Improvement Score, Median / CGI Improvement Score, Trt Effect: scale not given here
Experimental: There were five treatment groups in this study. […] Study medication was administered once daily. After Baseline measurements were performed, the titration phase was begun. Bifeprunox treated subjects were titrated up to 5 mg, 10 mg or 20 mg according to a standardized titration schedule (Day 1: 0.125 mg, Day 2: 0.25 mg, Day 3: 0.5 mg, Day 4: 1.0 mg, Day 5: 2.0 mg, Day 6: 5.0 mg, Day 7: 10.0 mg, Day 8: 20 mg). When the assigned dose was reached, subjects were maintained at that dose for the remainder of the six-week treatment period.
The change in the Positive and Negative Symptom Scale (PANSS) total score, from baseline to endpoint, was the primary outcome measure. Secondary efficacy measures included: PANSS positive, PANSS negative, PANSS general psychopathology (GPP) score, PANSS-derived Brief Psychiatric Rating Scale (BPRS) score, Clinical Global Impressions-Severity of Illness (CGI-S), CGI-Improvement (CGI-I) scores, and responder rates. Safety and tolerability evaluations included extrapyramidal symptoms (EPS), weight gain, lipid profile, and serum prolactin.

[3] = system: adult subjects with schizophrenia; experiment: CGI Severity of Illness score, Clinical Study Two; type: in vivo, human; details: for Change from Baseline in CGI Severity of Illness Score, Mean (SD) / Change from Baseline in CGI Severity of Illness Score, Median / Change from Baseline in CGI Severity of Illness Score, Trt Effect (bifeprunox—placebo) / mean change (SD) from Baseline to Endpoint in CGI severity of illness score: LOCF; for Change from Baseline in CGI Severity of Illness Score, Mean (SD) / Change from Baseline in CGI Severity of Illness Score, Median / Change from Baseline in CGI Severity of Illness Score, Trt Effect (bifeprunox—placebo): ITT population; for CGI severity of illness score, treatment effect (bifeprunox—placebo): Endpoint LOCF; for mean change (SD) from Baseline to Endpoint in CGI severity of illness score: ITT
Experimental: Rating scale assessments were performed weekly, except for week 5, to measure the change from baseline to endpoint of the PANSS total score. Other assessments included: PANSS positive symptom subscale score, PANSS negative symptom subscale score, PANSS general pschopathology subscale score, BPRS total score, BPRS psychosis score, the CGI-S score, the CGI-I score, responder rates based on the PANSS total score, and the Calgary Depression Scale for Schizophrenia (CDSS). […]
Subjects who completed this study had the option to continue in the long-term. […] Risperidone-treated subjects were titrated from 2 mg to 6 mg daily over a three-day period and were subsequently maintained at 6 mg/day for the remainder of the treatment period. […] Blood samples were also obtained at Screening/Baseline, Week 3, and Week 6 for clinical laboratory assessments.

[4] = Clinical laboratory assessments (prolactin), Clinical Study Three; details: bifeprunox 20, 30 mg; 6 weeks
Source text: To assess the safety and tolerability of bifeprunox using physical examination, weight, waist circumference, vital signs (pulse rate and systolic/diastolic blood pressure [BP], and oral temperature), 12-lead electrocardiogram (ECG), clinical laboratory assessments (hematology, biochemistry including fasting insulin level, fasting glucose, fasting lipid profile, urinalysis, special laboratory assessments for prolactin, IGF-1, IGFBP-3, and thyroid function), need for anticholinergic treatment during double-blind treatment period, concomitant medication use, adverse event (AE) monitoring, and assessments of abnormal movement including the Simpson-Angus Scale (SAS), Barnes Akathisia Scale (BAS), and Abnormal Involuntary Movement Scale (AIMS).

[5] = Pooled metabolic analysis, 6-month study: glucose
Source text: (§1) OBJECTIVE: To examine the metabolic effects of bifeprunox in patients with acute and stable schizophrenia.
(§2) METHODS: Metabolic data was compiled from one 6-month and four 6-week studies (i.e., a treatment period) of bifeprunox in patients with stable and acute schizophrenia, respectively. In the 6-month study, patients received bifeprunox (n=331) or placebo (PBO) (n=166). […] Metabolic evaluations included body weight, body mass index (BMI), plasma glucose and lipid profiles. Fasting glucose and lipid values were assessed in one 6-week study and in the 6-month study. Triglyceride:HDL ratio (TG:HDL) was calculated as a marker of insulin resistance. No statistical analyses were performed; only descriptive statistics are presented.

[6] = Pooled metabolic analysis, 6-month study: lipid profile
Source text: as §1, §2

serum proteins = experiment: Binding to serum proteins
[7] = Bifeprunox 30 mg, Week 6/Endpoint
[8] = Bifeprunox 40 mg, Week 6/Endpoint
[9] = fasting, endpoint, 6-month study, BX total

O=c1[nH]c2cccc(N3CCN(Cc4cccc(-c5ccccc5)c4)CC3)c2o1 [Bifeprunox, 7-[4-([1,1′-biphenyl]-3-ylmethyl)-1-piperazinyl]-2(3H)-benzoxazolone]
prolactin ([1]; bifeprunox 5-20 mg, 6 weeks, vs placebo): decreased prolactin levels; also recorded: a decrease in prolactin compared with the placebo group | non-fasting triglycerides and total cholesterol compared to placebo ([1]; bifeprunox, 6 weeks (Example 4)): statistically significant improvements | CGI Improvement Score, Trt Effect ([2]; 5 mg versus placebo, Endpoint LOCF): −0.28 | Actual Value of CGI Improvement Score, Mean (S.D.) ([2]; 5 mg, Endpoint LOCF): 3.33 (1.37) | Actual Value of CGI Improvement Score, Median ([2]; 5 mg, Endpoint LOCF): 3.0 | Actual Value of CGI Improvement Score, Mean (S.D.) ([2]; 5 mg, Week 1, LOCF): 3.76 (0.85) | Actual Value of CGI Improvement Score, Median ([2]; 5 mg, Week 1, LOCF): 4.0 | Actual Value of CGI Improvement Score, Mean (S.D.) ([2]; 5 mg, Week 2, LOCF): 3.46 (1.10) | Actual Value of CGI Improvement Score, Median ([2]; 5 mg, Week 2, LOCF): 3.0 | Actual Value of CGI Improvement Score, Mean (S.D.) ([2]; 5 mg, Week 3, LOCF): 3.2 (1.27) | Actual Value of CGI Improvement Score, Median ([2]; 5 mg, Week 3, LOCF): 3.0 | Actual Value of CGI Improvement Score, Mean (S.D.) ([2]; 5 mg, Week 4, LOCF): 3.37 (1.35) | Actual Value of CGI Improvement Score, Median ([2]; 5 mg, Week 4, LOCF): 3.0 | CGI Improvement Score, Trt Effect ([2]; 10 mg versus placebo, Endpoint LOCF): 0.28 | Actual Value of CGI Improvement Score, Mean (S.D.) ([2]; 10 mg, Endpoint LOCF): 3.90 (1.39) | Actual Value of CGI Improvement Score, Median ([2]; 10 mg, Endpoint LOCF): 4.0 | Actual Value of CGI Improvement Score, Mean (S.D.) ([2]; 10 mg, Week 1, LOCF): 3.88 (1.00) | Actual Value of CGI Improvement Score, Median ([2]; 10 mg, Week 1, LOCF): 4.0 | Actual Value of CGI Improvement Score, Mean (S.D.) ([2]; 10 mg, Week 2, LOCF): 3.71 (1.23) | Actual Value of CGI Improvement Score, Median ([2]; 10 mg, Week 2, LOCF): 4.0 | Actual Value of CGI Improvement Score, Mean (S.D.) ([2]; 10 mg, Week 3, LOCF): 3.79 (1.32) | Actual Value of CGI Improvement Score, Median ([2]; 10 mg, Week 3, LOCF): 4.0 | Actual Value of CGI Improvement Score, Mean (S.D.) ([2]; 10 mg, Week 4, LOCF): 3.86 (1.35) | Actual Value of CGI Improvement Score, Median ([2]; 10 mg, Week 4, LOCF): 4.0 | CGI Improvement Score, Trt Effect ([2]; 20 mg versus placebo, Endpoint LOCF): −0.21 | Actual Value of CGI Improvement Score, Mean (S.D.) ([2]; 20 mg, Endpoint LOCF): 342 (1.30) | Actual Value of CGI Improvement Score, Median ([2]; 20 mg, Endpoint LOCF): 3.0 | Actual Value of CGI Improvement Score, Mean (S.D.) ([2]; 20 mg, Week 1, LOCF): 3.54 (0.99) | Actual Value of CGI Improvement Score, Median ([2]; 20 mg, Week 1, LOCF): 4.0 | Actual Value of CGI Improvement Score, Mean (S.D.) ([2]; 20 mg, Week 2, LOCF): 3.30 (114) | Actual Value of CGI Improvement Score, Median ([2]; 20 mg, Week 2, LOCF): 3.0 | Actual Value of CGI Improvement Score, Mean (S.D.) ([2]; 20 mg, Week 3, LOCF): 3.31 (1.19) | Actual Value of CGI Improvement Score, Median ([2]; 20 mg, Week 3, LOCF): 3.0 | Actual Value of CGI Improvement Score, Mean (S.D.) ([2]; 20 mg, Week 4, LOCF): 3.35 (1.29) | Actual Value of CGI Improvement Score, Median ([2]; 20 mg, Week 4, LOCF): 3.0 | Change from Baseline in CGI Severity of Illness Score, Mean (SD) ([3]; Bifeprunox 30 mg, Week 1): −0.33 (0.77) | Change from Baseline in CGI Severity of Illness Score, Median ([3]; Bifeprunox 30 mg, Week 1): 0.0 | Change from Baseline in CGI Severity of Illness Score, Mean (SD) ([3]; Bifeprunox 30 mg, Week 2): −0.58 (0.97) | Change from Baseline in CGI Severity of Illness Score, Median ([3]; Bifeprunox 30 mg, Week 2): 0.0 | Change from Baseline in CGI Severity of Illness Score, Mean (SD) ([3]; Bifeprunox 30 mg, Week 3): −0.67 (1.08) | Change from Baseline in CGI Severity of Illness Score, Median ([3]; Bifeprunox 30 mg, Week 3): 0.0 | Change from Baseline in CGI Severity of Illness Score, Mean (SD) ([3]; Bifeprunox 30 mg, Week 4): −0.68 (1.11) | Change from Baseline in CGI Severity of Illness Score, Median ([3]; Bifeprunox 30 mg, Week 4): 0.0 | Change from Baseline in CGI Severity of Illness Score, Mean (SD) [3, 7]: −0.69 (1.19) | Change from Baseline in CGI Severity of Illness Score, Median [3, 7]: 0.0 | Change from Baseline in CGI Severity of Illness Score, Trt Effect (bifeprunox—placebo) [3, 7]: −0.28 | Change from Baseline in CGI Severity of Illness Score, Mean (SD) ([3]; Bifeprunox 40 mg, Week 1): −0.28 (0.65) | Change from Baseline in CGI Severity of Illness Score, Median ([3]; Bifeprunox 40 mg, Week 1): 0.0 | Change from Baseline in CGI Severity of Illness Score, Mean (SD) ([3]; Bifeprunox 40 mg, Week 2): −0.43 (0.90) | Change from Baseline in CGI Severity of Illness Score, Median ([3]; Bifeprunox 40 mg, Week 2): 0.0 | Change from Baseline in CGI Severity of Illness Score, Mean (SD) ([3]; Bifeprunox 40 mg, Week 3): −0.54 (1.02) | Change from Baseline in CGI Severity of Illness Score, Median ([3]; Bifeprunox 40 mg, Week 3): 0.0 | Change from Baseline in CGI Severity of Illness Score, Mean (SD) ([3]; Bifeprunox 40 mg, Week 4): −0.51 (1.08) | Change from Baseline in CGI Severity of Illness Score, Median ([3]; Bifeprunox 40 mg, Week 4): 0.0 | Change from Baseline in CGI Severity of Illness Score, Mean (SD) [3, 8]: −0.54 (1.12) | Change from Baseline in CGI Severity of Illness Score, Median [3, 8]: 0.0 | Change from Baseline in CGI Severity of Illness Score, Trt Effect (bifeprunox—placebo) [3, 8]: −0.18 | CGI severity of illness score, treatment effect (bifeprunox—placebo) ([3]; bifeprunox 30 mg): −0.28 | mean change (SD) from Baseline to Endpoint in CGI severity of illness score ([3]; bifeprunox 30 mg): −0.69 (1.19) | CGI severity of illness score, treatment effect (bifeprunox—placebo) ([3]; bifeprunox 40 mg): −0.18 | mean change (SD) from Baseline to Endpoint in CGI severity of illness score ([3]; bifeprunox 40 mg): −0.54 (1.12) | prolactin [4]: a decrease in prolactin | change in mean fasting glucose at endpoint ([5]; 6-month study): +4.32 mg/dL | change in non-fasting glucose at endpoint ([5]; bifeprunox total group): +1.16 mg/dL | change in total cholesterol (TC) ([6]; 6-month study): -0.31 mmol/L | decrease in TG:HDL ([6]; 6-month study): 23% | decrease in total cholesterol (TC) ([6]; 6-month study): 6% | total cholesterol and triglycerides (in words) ([6]; 6-month study): reduced to a greater extent with bifeprunox than with placebo | Fasting HDL, Mean change (SD) [6, 9]: 2.9 (9.3) mg/dL | Fasting HDL, Percentage mean change [6, 9]: 6.2% | Total cholesterol, Mean change (SD) [6, 9]: −11.6 (29.7) mg/dL | Total cholesterol, Percentage mean change [6, 9]: −6.4% | Triglyceride:HDL ratio, Mean change (SD) [6, 9]: −0.4 (1.0) | Triglyceride:HDL ratio, Percentage mean change [6, 9]: −23.0% | Triglycerides, Mean change (SD) [6, 9]: −28.0 (76.0) mg/dL | Triglycerides, Percentage mean change [6, 9]: −19.4% | Fasting LDL, Mean change (SD) ([6]; in vivo): −9.7 (27.6) mg/dL | Fasting LDL, Percentage mean change ([6]; in vivo): −8.6% | change in TG values ([6]; over 6-months): -0.32 mmol/L | decrease in TG values ([6]; over 6-months): 19% | bound to serum proteins (serum proteins): approximately 99%
